A value given as a limit tells only on which side of the number the result lay.

What all share (format): in vivo
The subject of experiment [1] is Spodoptera littoralis, Heliothis virescens, Plutella xylostella, Diabrotica balteata, Thrips tabaci, Tetranychus urticae. In words: Pesticidal tests, same protocols (all six pests taken together). As to conditions: same protocols as b207 (200 ppm), under the test conditions. The source says: (§1) Cotton leaf discs were placed on agar in a 24-well microtiter plate and sprayed with test solutions at an application rate of 200 ppm. After drying, the leaf discs were infested with 5 to L1 larvae. The samples were checked for mortality, feeding behavior, and growth regulation 3 days after treatment (DAT). The following compounds gave at least 80% control of Spodoptera littoralis: A1, A2, A3, A4, A6, A9, A10, A11, A12, A13, A14, A15, A16, A19, A20, A22, A23, A25, A26, A27, B1, B2, B3, B5, B6, B7, B8, B9, B11, B12, B13, B15, B16, B18, B19, B20, B21, B22, B24, B26, B27, B28, C1, C2, C3, C4, C5, C6, C7, C8, C9, C10, C12, C13, C16, C19, C20, C21, C22, C23, D1, D2, D3, D4, D5, D6, D7, D8, D9, D10, D11, D12, D13, D14, D15, D16, D17, D18, D19, D20, D21, D22, D23, D24. Heliothis virescens (Tobacco Budworm): Eggs (0-24 h old) were placed in 24-well microtiter plate on artificial diet and treated with test solutions at an application rate of 200 ppm (concentration in well 18 ppm) by pipetting. After an incubation period of 4 days, samples were checked for egg mortality, larval mortality, and growth regulation. The following compounds gave at least 80% control of Heliothis virescens: A1, A2, A3, A4, A13, A15, A17, A19, A20, A22, A23, A25, A26, A28, B1, B2, B3, B5, B6, B7, B9, B11, B13, B15, B18, B19, B20, B21, B25, B26, B27, B28, C1, C2, C3, C4, C5, C6, C7, C8, C9, C10, C12, C14, C16, C17, C19, C20, C21, C22, D1, D2, D3, D4, D5, D6, D7, D8, D9, D10, D11, D12, D13, D14, D15, D16, D17, D18, D19, D20, D21, D22, D23, E1, E2, E3, E4, E5. Plutella xylostella (Diamond Back Moth): 24-well microtiter plate (MTP) with artificial diet was treated with test solutions at an application rate of 200 ppm (concentration in well 18 ppm) by pipetting. After drying, the MTP's were infested with L2 larvae (7-12 per well). After an incubation period of 6 days, samples were checked for larval mortality and growth regulation. The following compounds gave at least 80% control of Plutella xylostella: A1, A3, A4, A10, All, A15, A19, A23, A25, B1, B2, B3, B5, B6, B7, B8, B9, B11, B13, B15, B18, B19, B20, B21, B26, B27, B28, C1, C2, C3, C4, C6, C7, C8, C9, C12, C16, C19, C20, C22, D1, D2, D3, D4, D5, D6, D7, D8, D9, D10, D12, D13, D14, D15, D16, D17, D18, D19, D20, D21, D22, D23, E1, E3, E5. Diabrotica balteata (Corn Root Worm): A 24-well microtiter plate (MTP) with artificial diet was treated with test solutions at an application rate of 200 ppm (concentration in well 18 ppm) by pipetting. After drying, the MTP's were infested with L2 larvae (6-10 per well). After an incubation period of 5 days, samples were checked for larval mortality and growth regulation. The following compounds gave at least 80% control of Diabrotica balteata: A2, A3, A4, A9, A11, A12, A13, A14, A15, A17, A19, A21, A22, A23, A24, A25, A26, B1, B2, B3, B6, B7, B8, B11, B13, B14, B15, B18, B19, B20, B21, B22, B26, B28, C1, C2, C3, C4, C5, C6, C7, C8, C9, C10, C12, C14, C15, C16, C19, C20, C21, C22, C23, C26, D1, D2, D4, D5, D6, D7, D8, D9, D10, D12, D14, D15, D16, D17, D18, D19, D20, D21, D22, D23, E2, E3, E5. Thrips tabaci (Onion Thrips): Sunflower leaf discs were placed on agar in a 24-well microtiter plate and sprayed with test solutions at an application rate of 200 ppm. After drying, the leaf discs were infested with an […] population of mixed ages. After an incubation period of 7 days, samples were checked for mortality. The following compounds gave at least 80% control of Thrips tabaci: B1, B7, B11, B15, B18, B19, B28, D1, D2, D3, D4, D5, D6, D7, D8, D9, D10, D12, D16, D18, D19, D20, D21, D23. Tetranychus urticae (Two-Spotted Spider Mite): Bean leaf discs on agar in 24-well microtiter plates were sprayed with test solutions at an application rate of 200 ppm. After drying, the leaf discs are infested with mite populations of mixed ages. 8 days later, discs are checked for egg mortality, larval mortality, and adult mortality. […]

For experiment [2], the system named is Heliothis virescens (Tobacco Budworm). In words: Heliothis virescens egg test on artificial diet. As to conditions: 96 h, 200 ppm (concentration in well 18 ppm), eggs 0-24 h old on artificial diet, egg mortality, larval mortality, growth regulation after 4 days.
Text: as §1

Experiment [3] has as its system Plutella xylostella (Diamond Back Moth). In words: Plutella xylostella larvae test on artificial diet. The following applies: 144 h, 200 ppm (concentration in well 18 ppm), L2 larvae, larval mortality and growth regulation after 6 days.
Text: as §1

Experiment [4] deals with Spodoptera littoralis (Egyptian Cotton Leafworm). In words: Spodoptera littoralis cotton leaf disc spray test. The following applies: foliar, 72 h, 200 ppm spray on cotton leaf discs, L1 larvae, mortality, feeding behavior, growth regulation 3 DAT.
Text: as §1

Experiment [5] deals with Diabrotica balteata (Corn Root Worm). Put plainly: Diabrotica balteata larvae test on artificial diet. The following applies: 120 h, 200 ppm (concentration in well 18 ppm), L2 larvae, larval mortality and growth regulation after 5 days.
Text: as §1

Regarding `O=C(Nc1cccc(C2=NOC(c3cc(Cl)cc(Cl)c3)(C(F)(F)F)C2)c1F)c1cc(C(F)(F)F)ccc1F` (racemic) [B23], the “effect on mortality, feeding behavior, or growth regulation” value in experiment [1] is given as “little or no effect”.

Consider `CSc1ccccc1C(=O)Nc1cccc(C2=NOC(c3cc(Cl)cc(Cl)c3)(C(F)(F)F)C2)c1F` (centres unmarked) [B27], for which the pest or weed control at 200 ppm in experiment [2], in experiment [3] and in experiment [4] was not below 80% each time.

`N#Cc1ccc(C2=NOC(c3cc(Cl)cc(Cl)c3)(C(F)(F)F)C2)cc1NC(=O)c1ccco1` (centres unmarked) [D13]: the pest or weed control at 200 ppm in experiment [2], in experiment [3] and in experiment [4] was not below 80% each time.

With `Cc1ccc(C(=O)Nc2cccc(C3=NOC(c4cc(Cl)cc(Cl)c4)(C(F)(F)F)C3)c2F)cc1` (centres unmarked) [B6], the pest or weed control at 200 ppm in experiment [2], in experiment [3], in experiment [5] and in experiment [4] was not below 80% each time.

For `O=C(Nc1cccc(C2=NOC(c3cc(Cl)cc(Cl)c3)(C(F)(F)F)C2)c1F)c1cccnc1` (centres unmarked) [B26], the pest or weed control at 200 ppm in experiment [2], in experiment [3], in experiment [5] and in experiment [4] was not below 80% in each case.

`O=C(Nc1cc(C2=NOC(c3cc(Cl)cc(Cl)c3)(C(F)(F)F)C2)ccc1F)c1ccccc1F` (centres unmarked) [C5]: the pest or weed control at 200 ppm in experiment [2], in experiment [5] and in experiment [4] was not below 80% each time.

For the molecule `O=C(Nc1cccc(C2=NOC(c3cc(Cl)cc(Cl)c3)(C(F)(F)F)C2)c1F)c1cccc(F)c1F` (centres unmarked) [B21], the pest or weed control at 200 ppm in experiment [2], in experiment [3], in experiment [5] and in experiment [4] was not below 80% in each case.

Take `Cc1ccccc1C(=O)Nc1cccc(C2=NOC(c3cc(Cl)cc(Cl)c3)(C(F)(F)F)C2)c1F` (centres unmarked) [B2]: the pest or weed control at 200 ppm in experiment [2], in experiment [3], in experiment [5] and in experiment [4] was not below 80% throughout.

On to `O=C(Nc1cccc(C2=NOC(c3cc(Cl)cc(Cl)c3)(C(F)(F)F)C2)c1F)c1ccccn1` (centres unmarked) [B25], for which the pest or weed control (usually the degree to which the test organism was suppressed or injured, in per cent) at 200 ppm in experiment [2] is not below 80%.

On to `O=C(Nc1cc(C2=NOC(c3cc(Cl)cc(Cl)c3)(C(F)(F)F)C2)ccc1F)c1ccco1` (centres unmarked) [C13], for which, in experiment [4], the pest or weed control at 200 ppm was not below 80%.

As for `Cc1cc(NC(=O)c2ccc(C#N)cc2)cc(C2=NOC(c3cc(Cl)cc(Cl)c3)(C(F)(F)F)C2)c1` (centres unmarked) [E1], the pest or weed control at 200 ppm in experiment [2] and in experiment [3] was not below 80% in each case.

With `Cc1ccccc1C(=O)Nc1cc(C2=NOC(c3cc(Cl)cc(Cl)c3)(C(F)(F)F)C2)ccc1F` (centres unmarked) [C6], the pest or weed control at 200 ppm in experiment [2], in experiment [3], in experiment [5] and in experiment [4] was not below 80% each time.

`N#Cc1ccc(C(=O)Nc2cc(C3=NOC(c4cc(Cl)cc(Cl)c4)(C(F)(F)F)C3)ccc2F)cc1` (centres unmarked) [C1]: the pest or weed control at 200 ppm in experiment [2], in experiment [3], in experiment [5] and in experiment [4] was not below 80% each time.

For `O=C(Nc1cc(C2=NOC(c3cc(Cl)cc(Cl)c3)(C(F)(F)F)C2)ccc1F)c1ccccc1` (centres unmarked) [C19], the pest or weed control at 200 ppm in experiment [2], in experiment [3], in experiment [5] and in experiment [4] was not below 80% in each case.

Consider `N#Cc1ccc(C2=NOC(c3cc(Cl)cc(Cl)c3)(C(F)(F)F)C2)cc1NC(=O)c1cccc(F)c1F` (centres unmarked) [D22], for which the pest or weed control at 200 ppm in experiment [2], in experiment [3], in experiment [5] and in experiment [4] was not below 80% in each case.

In experiment [4], `CCCCC(=O)Nc1cccc(C2=NOC(c3cc(Cl)cc(Cl)c3)(C(F)(F)F)C2)c1` (centres unmarked) [A6, pentanoic acid {3-[5-(3,5-dichloro-phenyl)-5-trifluoromethyl-4,5-dihydro-isoxazol-3-yl]-phenyl}-amide] registered a pest or weed control at 200 ppm not below 80%.

Take `O=C(Nc1cc(C2=NOC(c3cc(Cl)cc(Cl)c3)(C(F)(F)F)C2)ccc1F)c1ccc(F)cc1` (centres unmarked) [C20]: the pest or weed control at 200 ppm in experiment [2], in experiment [3], in experiment [5] and in experiment [4] was not below 80% throughout.

`O=C(Nc1cc(C2=NOC(c3cc(Cl)cc(Cl)c3)(C(F)(F)F)C2)ccc1F)c1ccc([N+](=O)[O-])cc1` (centres unmarked) [C8]: the pest or weed control at 200 ppm in experiment [2], in experiment [3], in experiment [5] and in experiment [4] was not below 80% each time.

Take `O=C(Nc1cc(C2=NOC(c3cc(Cl)cc(Cl)c3)(C(F)(F)F)C2)ccc1F)c1cccc(F)c1F` (centres unmarked) [C23]: the pest or weed control at 200 ppm in experiment [5] and in experiment [4] was not below 80% in each case.

In the case of `O=C(Nc1cccc(C2=NOC(c3cc(Cl)cc(Cl)c3)(C(F)(F)F)C2)c1F)c1ccc(F)cc1F` (centres unmarked) [B22], the pest or weed control at 200 ppm in experiment [5] and in experiment [4] was not below 80% each time.

With `O=C(Nc1cccc(C2=NOC(c3cc(Cl)cc(Cl)c3)(C(F)(F)F)C2)c1F)c1ccccc1Cl` (centres unmarked) [B3], the pest or weed control at 200 ppm in experiment [2], in experiment [3], in experiment [5] and in experiment [4] was not below 80% throughout.

Regarding `O=C(Nc1cc(C2=NOC(c3cc(Cl)cc(Cl)c3)(C(F)(F)F)C2)ccc1F)c1ccccc1Cl` (centres unmarked) [C7], the pest or weed control at 200 ppm in experiment [2], in experiment [3], in experiment [5] and in experiment [4] was not below 80% each time.

In experiment [4], `O=C(Nc1cccc(C2=NOC(c3cc(Cl)cc(Cl)c3)(C(F)(F)F)C2)c1F)c1ccccc1` (centres unmarked) [B16] yielded a pest or weed control at 200 ppm not below 80%.
